For the assay, the target named is PIK3CA (human) (UniProt P42336). Nature of the assay: Enzyme Assay.
Chain of PIK3CA (human) (P42336 whole entry, looked up): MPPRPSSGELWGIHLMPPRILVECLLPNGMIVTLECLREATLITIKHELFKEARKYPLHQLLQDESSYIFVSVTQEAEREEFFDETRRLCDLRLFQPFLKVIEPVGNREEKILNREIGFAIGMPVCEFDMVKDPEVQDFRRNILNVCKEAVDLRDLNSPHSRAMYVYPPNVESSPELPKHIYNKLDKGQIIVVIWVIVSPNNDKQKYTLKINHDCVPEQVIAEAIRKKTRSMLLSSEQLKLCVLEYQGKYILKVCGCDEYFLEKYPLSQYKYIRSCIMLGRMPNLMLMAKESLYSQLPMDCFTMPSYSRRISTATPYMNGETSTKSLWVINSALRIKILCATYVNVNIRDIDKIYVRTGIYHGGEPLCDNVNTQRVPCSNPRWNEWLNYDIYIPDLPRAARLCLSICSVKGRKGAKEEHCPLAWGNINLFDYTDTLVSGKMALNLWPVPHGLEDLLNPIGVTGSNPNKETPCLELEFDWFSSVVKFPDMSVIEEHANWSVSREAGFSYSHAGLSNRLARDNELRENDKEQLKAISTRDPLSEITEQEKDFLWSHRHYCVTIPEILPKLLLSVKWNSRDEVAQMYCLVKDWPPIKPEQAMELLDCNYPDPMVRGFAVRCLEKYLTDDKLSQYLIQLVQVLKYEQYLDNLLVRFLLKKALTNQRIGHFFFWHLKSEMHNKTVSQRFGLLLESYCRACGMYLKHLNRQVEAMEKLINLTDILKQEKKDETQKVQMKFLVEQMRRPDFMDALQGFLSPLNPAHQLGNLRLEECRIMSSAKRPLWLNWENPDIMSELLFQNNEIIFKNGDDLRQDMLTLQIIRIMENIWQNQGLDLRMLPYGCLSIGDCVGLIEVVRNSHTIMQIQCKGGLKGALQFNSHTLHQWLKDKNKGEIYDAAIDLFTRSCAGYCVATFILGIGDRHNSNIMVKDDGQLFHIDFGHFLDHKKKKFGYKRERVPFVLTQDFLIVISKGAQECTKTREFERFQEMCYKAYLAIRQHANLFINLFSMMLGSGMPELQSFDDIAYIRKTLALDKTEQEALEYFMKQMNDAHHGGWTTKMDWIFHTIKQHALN
With `CNC(=O)Nc1ccc(-c2ccc3ncc4c(c3c2)n(-c2cccc(C(F)(F)F)c2C)c(=O)n4C)cn1`, the IC50 – broadly, the concentration that gives 50% inhibition – is 1 nM.
For `Cn1c(=O)n(-c2ccc(C(C)(C)C#N)cc2)c2c3cc(-c4ccc(NC=O)nc4)ccc3ncc21`, the 50% inhibitory concentration (IC50) was 19 nM.
The figure for `CNC(=O)Nc1ccc(-c2ccc3ncc4c(c3c2)n(-c2cccc(Cl)c2C)c(=O)n4C)cn1` is 6 nM.
The figure for `Cc1ncc(-c2ccc3ncc4c(c3c2)n(-c2ccc(C(C)(C)C#N)cc2)c(=O)n4C)cc1OC(F)F` is 133 nM.
The figure for `C#Cc1cncc(-c2ccc3ncc4c(c3c2)n(-c2ccc(C(C)(C)C#N)cc2)c(=O)n4C)c1` is 12 nM; for `CNC(=O)Nc1ccc(-c2ccc3ncc4c(c3c2)n(-c2cccc(F)c2C)c(=O)n4C)cn1` it is 7 nM; for `CNC(=O)Nc1ccc(-c2ccc3ncc4c(c3c2)n(-c2ccc(N3CCN(C)CC3)c(C(F)(F)F)c2)c(=O)n4C)cn1` it is 3 nM.
In turn, `Cn1c(=O)n(-c2cccc(C(F)(F)F)c2)c2c3cc(-c4ccc(NC(=O)CC#N)nc4)ccc3ncc21` registered a concentration for half-maximal inhibition (IC50) of 18 nM.
The figure for `C=CC(=O)Nc1ccc(-c2ccc3ncc4c(c3c2)n(-c2cccc(C(F)(F)F)c2)c(=O)n4C)cn1` is 45 nM.
The result for `CNC(=O)Nc1ccc(-c2ccc3ncc4c(c3c2)n(-c2cccnc2OC)c(=O)n4C)cn1` reads 19 nM.
The result for `COC(=O)Nc1ccc(-c2ccc3ncc4c(c3c2)n(-c2ccc(F)c(Cl)c2)c(=O)n4C)cn1` reads 94 nM; that for `CNC(=O)Nc1ccc(-c2ccc3ncc4c(c3c2)n(-c2cccc(F)c2)c(=O)n4C)cn1`, 21 nM.
Regarding `Cn1c(=O)n(-c2ccc(C(C)(C)C#N)cc2)c2c3cc(-c4cncc(OCC#N)c4)ccc3ncc21`, the IC50 worked out at 22 nM.
The figure for `CNC(=O)Nc1ccc(-c2ccc3ncc4c(c3c2)n(-c2ccc(C(C)(C)C#N)cc2)c(=O)n4C)cn1` is 21 nM; for `COCCOc1cncc(-c2ccc3ncc4c(c3c2)n(-c2ccc(F)c(C(F)(F)F)c2)c(=O)n4C)c1` it is 107 nM; for `CNC(=O)Nc1ccc(-c2ccc3ncc4c(c3c2)n(-c2ccccc2C)c(=O)n4C)cn1` it is 12 nM.
`COCCOc1cc(-c2ccc3ncc4c(c3c2)n(-c2ccc(C(C)(C)C#N)cc2)c(=O)n4C)cnc1C` displayed an IC50 of 18 nM. Compared with the last molecule, the IC50 is about 1.5-fold higher.
The figure for `CNC(=O)Nc1ccc(-c2ccc3ncc4c(c3c2)n(-c2cccc(F)c2Cl)c(=O)n4C)cn1` is 5 nM.
The result for `Cn1c(=O)n(-c2ccc(C(C)(C)C#N)cc2)c2c3cc(-c4cncc(OCCF)c4)ccc3ncc21` reads 23 nM.
Take `COC(=O)Nc1ccc(-c2ccc3ncc4c(c3c2)n(-c2ccccc2C(F)(F)F)c(=O)n4C)cn1`: the half-maximal inhibitory concentration (IC50) came to 12 nM.
The figure for `Cn1c(=O)n(-c2ccc(F)c(Cl)c2)c2c3cc(-c4cncc(OCCF)c4)ccc3ncc21` is 47 nM.
The figure for `COCCOc1cc(-c2ccc3ncc4c(c3c2)n(-c2cccc(C(F)(F)F)c2)c(=O)n4C)cnc1C` is 40 nM.
The figure for `CNC(=O)Nc1ccc(-c2ccc3ncc4c(c3c2)n(-c2ccccc2C(F)(F)F)c(=O)n4C)cn1` is 4 nM.
`COCCOc1cncc(-c2ccc3ncc4c(c3c2)n(-c2ccc(C(C)(C)C#N)cc2)c(=O)n4C)c1` returned a 50% inhibitory concentration (IC50) of 76 nM.
The figure for `C/C=C/C(=O)Nc1ccc(-c2ccc3ncc4c(c3c2)n(-c2ccc(C(C)(C)C#N)cc2)c(=O)n4C)cn1` is 14 nM; for `COCc1ccc(-c2ccc3ncc4c(c3c2)n(-c2ccc(C(C)(C)C#N)cc2)c(=O)n4C)cn1` it is 44 nM.
Take `Cn1c(=O)n(-c2ccc(C(C)(C)C#N)cc2)c2c3cc(-c4cncc(OC(F)F)c4)ccc3ncc21`: the concentration for half-maximal inhibition (IC50) amounted to 10 nM.
The figure for `CNC(=O)Nc1ccc(-c2ccc3ncc4c(c3c2)n(-c2ccc(F)cc2C)c(=O)n4C)cn1` is 12 nM; for `C=CC(=O)Nc1ccc(-c2ccc3ncc4c(c3c2)n(-c2cccc(F)c2C)c(=O)n4C)cn1` it is 52 nM.
The figure for `Cc1c(F)cccc1-n1c(=O)n(C)c2cnc3ccc(-c4cncc(OCC#N)c4)cc3c21` is 66 nM; for `Cn1c(=O)n(-c2cccc(C(F)(F)F)c2)c2c3cc(-c4cncc(OCCF)c4)ccc3ncc21` it is 115 nM.
As for `CCOC(=O)Nc1ccc(-c2ccc3ncc4c(c3c2)n(-c2cccc(C(F)(F)F)c2)c(=O)n4C)cn1`, the half-inhibitory concentration (IC50) was 103 nM.
The figure for `COC(=O)Nc1ccc(-c2ccc3ncc4c(c3c2)n(-c2cccc(C)c2C)c(=O)n4C)cn1` is 31 nM; for `COCC(=O)Nc1cncc(-c2ccc3ncc4c(c3c2)n(-c2ccc(C(C)(C)C#N)cc2)c(=O)n4C)c1` it is 63 nM.
The figure for `Cn1c(=O)n(-c2ccc(C(C)(C)C#N)cc2)c2c3cc(-c4ccc(NC(=O)NCCO)nc4)ccc3ncc21` is 22 nM.
The figure for `CNC(=O)Nc1ccc(-c2ccc3ncc4c(c3c2)n(-c2cccc(C)c2C)c(=O)n4C)cn1` is 3 nM; for `Cn1c(=O)n(-c2ccc(C(C)(C)C#N)cc2)c2c3cc(-c4ccc(NC(=O)C5CC5)nc4)ccc3ncc21` it is 6 nM.
As for `COC(=O)Nc1ccc(-c2ccc3ncc4c(c3c2)n(-c2cccc(Cl)c2F)c(=O)n4C)cn1`, the half-inhibitory concentration (IC50) was determined as 4 nM.
The figure for `Cc1ncc(-c2ccc3ncc4c(c3c2)n(-c2ccc(C(C)(C)C#N)cc2)c(=O)n4C)cc1OCCF` is 5 nM.
The result for `COCC(=O)Nc1ccc(-c2ccc3ncc4c(c3c2)n(-c2ccc(C(C)(C)C#N)cc2)c(=O)n4C)cn1` reads 15 nM.
The figure for `COC(=O)Nc1ccc(-c2ccc3ncc4c(c3c2)n(-c2cccc(Cl)c2C)c(=O)n4C)cn1` is 27 nM; for `COC(=O)Nc1ccc(-c2ccc3ncc4c(c3c2)n(-c2ccccc2C)c(=O)n4C)cn1` it is 48 nM.
On to `Cc1ncc(-c2ccc3ncc4c(c3c2)n(-c2cccc(F)c2C)c(=O)n4C)cc1OCCF`, for which the IC50 stood at 21 nM.
Consider `CNC(=O)Nc1ccc(-c2ccc3ncc4c(c3c2)n(-c2cccc(Cl)c2F)c(=O)n4C)cn1`, for which the half-inhibitory concentration (IC50) was 3 nM. Against the preceding molecule, the IC50 is about 7-fold lower.
`COCC(=O)Nc1ccc(-c2ccc3ncc4c(c3c2)n(-c2cccc(C(F)(F)F)c2)c(=O)n4C)cn1` came in with a concentration for half-maximal inhibition (IC50) of 32 nM.
The figure for `COC(=O)Nc1ccc(-c2ccc3ncc4c(c3c2)n(-c2cccc(C(F)(F)F)c2C)c(=O)n4C)cn1` is 15 nM; for `CNC(=O)Nc1ccc(-c2ccc3ncc4c(c3c2)n(-c2ccc(F)c(C(F)(F)F)c2)c(=O)n4C)cn1` it is 5 nM; for `COC(=O)Nc1cncc(-c2ccc3ncc4c(c3c2)n(-c2ccc(C(C)(C)C#N)cc2)c(=O)n4C)c1` it is 9 nM.
Turning to `COC(=O)Nc1ccc(-c2ccc3ncc4c(c3c2)n(-c2cccnc2OC)c(=O)n4C)cn1`, the 50% inhibitory concentration (IC50) worked out at 57 nM. This IC50 lies about 6.3-fold higher than the previous one.
The molecule `Cn1c(=O)n(-c2ccc(C(C)(C)C#N)cc2)c2c3cc(-c4ccc(NC(=O)C(F)(F)F)nc4)ccc3ncc21` registered an IC50 of 33 nM. This IC50 is about 1.7-fold lower than that of the molecule before.
The figure for `COCC(=O)Nc1ccc(-c2ccc3ncc4c(c3c2)n(-c2ccc(F)c(C(F)(F)F)c2)c(=O)n4C)cn1` is 90 nM; for `Cn1c(=O)n(-c2ccc(C(C)(C)C#N)cc2)c2c3cc(-c4cncc(OCC(F)(F)F)c4)ccc3ncc21` it is 19 nM.
The molecule `C=CC(=O)Nc1ccc(-c2ccc3ncc4c(c3c2)n(-c2ccc(C(C)(C)C#N)cc2)c(=O)n4C)cn1` came in with a concentration for half-maximal inhibition (IC50) of 5 nM.
Consider `CNC(=O)Nc1ccc(-c2ccc3ncc4c(c3c2)n(-c2cccc(C(F)(F)F)c2)c(=O)n4C)cn1`, for which the concentration for half-maximal inhibition (IC50) worked out at 2 nM.
The figure for `COC(=O)Nc1ccc(-c2ccc3ncc4c(c3c2)n(-c2ccc(C(F)(F)F)nc2C)c(=O)n4C)cn1` is 2.4 nM.
Molecule `CNC(=O)Nc1ccc(-c2ccc3ncc4c(c3c2)n(-c2c(C)cccc2C)c(=O)n4C)cn1` had an IC50 of 107 nM.
The result for `Cn1c(=O)n(-c2ccc(C(C)(C)C#N)cc2)c2c3cc(-c4ccc(NC(=O)CC#N)nc4)ccc3ncc21` reads 24 nM; that for `CNC(=O)Nc1ccc(-c2ccc3ncc4c(c3c2)n(-c2ccc(Cl)cc2Cl)c(=O)n4C)cn1`, 87 nM; that for `COC(=O)Nc1cncc(-c2ccc3ncc4c(c3c2)n(-c2cccc(C(F)(F)F)c2)c(=O)n4C)c1`, 146 nM.
With `COC(=O)Nc1ccc(-c2ccc3ncc4c(c3c2)n(-c2cccc(F)c2Cl)c(=O)n4C)cn1`, the 50% inhibitory concentration (IC50) was determined as 16 nM. Compared with the last molecule, the IC50 is about 9.1-fold lower.
The molecule `CNC(=O)Nc1ccc(-c2ccc3ncc4c(c3c2)n(-c2ccc(Cl)cc2C)c(=O)n4C)cn1` returned a half-inhibitory concentration (IC50) of 9 nM. This IC50 is about 1.8-fold lower than that of the molecule before.
The result for `Cc1ncc(-c2ccc3ncc4c(c3c2)n(-c2cccc(C(F)(F)F)c2)c(=O)n4C)cc1OCCF` reads 14 nM; that for `Cn1c(=O)n(-c2ccc(C(C)(C)C#N)cc2)c2c3cc(-c4ccc(NC(=O)NC5CCOC5)nc4)ccc3ncc21` (stereo unspecified), 44 nM; that for `COC(=O)Nc1ccc(-c2ccc3ncc4c(c3c2)n(-c2cccc(C(F)(F)F)c2)c(=O)n4C)cn1`, 6 nM.
The result for `COC(=O)Nc1ccc(-c2ccc3ncc4c(c3c2)n(-c2ccc(Cl)cc2Cl)c(=O)n4C)cn1` reads 85 nM.
Molecule `C#Cc1ccc(-c2ccc3ncc4c(c3c2)n(-c2ccc(C(C)(C)C#N)cc2)c(=O)n4C)cn1` showed a half-inhibitory concentration (IC50) of 6 nM.
The result for `COC(=O)Nc1ccc(-c2ccc3ncc4c(c3c2)n(-c2cccc(F)c2C)c(=O)n4C)cn1` reads 40 nM; that for `COC(=O)Nc1cncc(-c2ccc3ncc4c(c3c2)n(-c2cccc(Cl)c2C)c(=O)n4C)c1`, 80 nM.
The result for `COC(=O)Nc1ccc(-c2ccc3ncc4c(c3c2)n(-c2ccc(F)c(C(F)(F)F)c2)c(=O)n4C)cn1` reads 25 nM; that for `C#Cc1cncc(-c2ccc3ncc4c(c3c2)n(-c2cccc(C(F)(F)F)c2)c(=O)n4C)c1`, 22 nM; that for `CNC(=O)Nc1ccc(-c2ccc3ncc4c(c3c2)n(-c2ccc(F)cc2)c(=O)n4C)cn1`, 8 nM.

Values taken from the Kinase Knowledgebase extract (Sharma et al. 2016).
